# Source: patent US7795305B2, “CDDO-compounds and combination therapies thereof” (Board of Regents, The University of Texas System, priority 2000, dated 2010)
# Read-outs that look alike come from different tables or passages of the source.
# Key:
# HL-60 cells [1] = assay: Differentiation by CD11b/CD14 flow cytometry; type: cell-based, human; details: for CD11b %: 7 days; for percentage of CD14 (+) live cells (FCM): no ligand
# Procedure: (§1) Immunophenotyping. The PE-conjugated anti-CD11b, FITC-conjugated anti-CD14 monoclonal antibody (mAb) (Becton Dickinson) and PE-conjugated anti-CD95 mAb (PharMingen) were used at a 1/10 dilution.
# Enhancement in cellular differentiation using combinations of CDDO with ATRA were tested. […] Cell differentiation was analyzed by flow cytometry (CD14/CD11b staining). […] These experiments were repeated. […]
# Finally, the inventors examined if CDDO-Me combined with ATRA would enhance differentiation. […] […] Next, combined treatment with CDDO-Me and RXR-specific ligand were tested for potentiation of anti-leukemic effects.
# [2] = system: bone marrow endothelial cells; assay: Matrigel tube-like endothelial structure formation; type: cell-based
# Procedure: (§2) CDDO. PPARγ nuclear receptor is expressed in bone marrow endothelial cells, and PPARγ ligands inhibit inhibited endothelial cell proliferation. […] The present inventors therefore tested the effects of CDDO in endothelial cell assays. The formation of tube-like endothelial structures was performed using Matrigel®, a basement membrane matrix extracted from the Engelbreth-Holm Swarm mouse sarcoma cell line. Bone marrow endothelial cells with recombinant angiogenic cytokines were incubated in the presence or absence of CDDO, and formation of tube-like endothelial structures was assessed by direct observation using a inverted contrast-phase microscope. […] Vascular endothelial cells (HUVEC) were grown in EBM-2 or EGM-2 media (Clonetics) containing VEGF, EGF, bFGF and IGF-1. The proliferation of endothelial cells was assessed by inverted contrast-phase microscope after 24 hrs of CDDO exposure in the indicated concentrations. CDDO-Me. The formation of tube-like endothelial structures that are associated with angiogenesis was analyzed using a Matrigel system (Kubota et al., 1988). Capillary-like structure formation of bone marrow endothelium was inhibited by CDDO-Me. […] Thus, CDDO-Me also has anti-angiogenic effects.
# Daudi cells = assay: cells
# Procedure: (§3) Suspension culture of leukemic cells. Leukemic cell lines were cultured at a density of 3.0×10^5 cells/mL, and AML mononuclear cells at 5×10^5 cells/mL in the presence or absence of indicated concentrations of CDDO-Me. Appropriate amounts of DMSO (final concentration<0.05%) was included as a control. For cytotoxicity studies, 1 μM ara-C was added to the cultures.
# (§4) CDDO-Me. […] Mechanism of growth inhibition was analyzed on cell cycle and apoptosis in HL-60 cells.
# [3] = system: vascular endothelial cells (HUVECs); assay: Proliferation of cytokine-stimulated vascular endothelial cells ([3H]-Thymidine, microscopy); type: cell-based
# Procedure: as §2
# HL-60 cells [4] = assay: Viable cell count of leukemic cells in suspension culture (Trypan blue); type: cell-based, human; details: for IC50: HL-60
# Procedure: as §3
# CDDO. […] The percentage of proliferating cells were analyzed by FCM.
# as §4
# primary AML cells = assay: Monocytic differentiation (CD14) in primary AML; type: cell-based, human
# Procedure: as §1
# CDDO-Me. […] Effects of CDDO-Me were also tested on clonogenic AML cells.
# [5] = Description: Subacute toxicity studies. An important aspect of this invention of CDDO-compounds and its combination therapies with other chemotherapeutics is to assess the toxicity and relative therapeutic efficacy of CDDO-compounds. The preliminary toxicity (i.e. determination of LD50 and MTD [maximum tolerated dose]) of CDDO-compounds was studied in healthy BALB/C mice (male and female, 25-30 g) after single i. v. or oral injections. Seven different dose levels (10 mice/dose level) were used after the appropriate pilot dosing experiments to define a MTD dose for both the oral and iv routes of administration. Animals were observed and weighed daily. The experiment was terminated on day 14. Surviving animals were sacrificed by exposure to carbon dioxide. The unit-dose effect line will be constructed and used to calculate lethal doses LD10 and LD50).
# Determination of MTD. 60 female Balb/C mice divided into 12 groups of 5 mice. With 5 mice per dose level, six dose levels for IV or oral drug administration were used.
# (§5) Intravenous CDDO administration. Groups of mice received CDDO intravenously as a single bolus injection into the tail vein on Day 1. […] The typical organs from each mouse that are examined include brain, heart, lungs, spleen, pancreas, kidneys, liver, gastrointestinal tract, lymph nodes, muscle, bone marrow, and skin.
# as §5, with “CDDO-Me” for “CDDO”
# HL-60-Dox cells = assay: Killing of MDR-1 expressing cells; type: cell-based, human
# [6] = system: U937 cells transduced with Bcl-2; assay: Cytotoxicity in Bcl-2 overexpressing cells; type: cell-based, human
# Description: The inventors also tested if overexpression of the anti-apoptotic protein Bcl-2 protected leukemic cells from CDDO-induced cytotoxicity. For these experiments U937 cells transduced with Bcl-2 were used with empty-vector containing counterparts as controls.
# To study if the overexpression of Bcl-2 can protect leukemic cells from CDDO-Me-induced cytotoxicity the inventors used U937 cells transduced with Bcl-2 (Vrana et al., 1999) and their empty-vector containing counterparts. […] However, […] overexpressing Bcl-2 exerted almost complete protection from CDDO-Me killing as determined by annexin V-positivity, Phi-Phi-Lux and CMXRos staining. […] In contrast, in p53-negative HL-60 and HL-60-Dox cells Fas was only not induced but IETD-FMK could also not prevent CDDO-Me-induced cell death, indicating involvement of different mechanisms of apoptotic cell death in these cells (Owen-Schaub et al., 1994). […] Thus, induction of the FasL/Fas/caspase-8 pathway is not essential in the execution of CDDO-Me-induced cell death. Post-translational modifications of Bcl-2 are involved in the regulation of apoptosis by CDDO-Me. Thus, Bcl-2 phosphorylation is inhibited by CDDO-Me.
compound,measurement,setting,value
COC(=O)[C@]12CCC(C)(C)C[C@H]1[C@H]1C(=O)C=C3[C@@]4(C)C=C(C#N)C(=O)C(C)(C)[C@@H]4CC[C@@]3(C)[C@]1(C)CC2 [CDDO-Me],CD11b+ cells,HL-60 cells [1]; 0.1 μM,86.6%
same,CD11b+ cells,"HL-60 cells [1]; 48 hrs, CDDO-Me 0.1 μM, ATRA 1 μM, alone or simultaneously (DMSO controls 40%)",67.4%
same,formation of capillary-like structures by bone marrow endothelium,[2],inhibited
same,"cell number, % of DMSO-controls","Daudi cells; 0.3 μM, 48 hrs",22.5%
same,proliferation / structure formation of cytokine-stimulated vascular endothelial cells,[3],also inhibited
same,viable cells recovered,"HL-60 cells [4]; 0.5 μM, 48 hrs",essentially no viable cells
same,IC50,HL-60 cells [4]; read-out: IC50,400 nM
same,AML samples with induced monocytic differentiation (CD14),primary AML cells,2/5
same,Diagnoses/observations,"[5]; CDDO-Me IV single bolus, 1.0 mg/kg, 14 days",DIED @ 5 minutes
same,Diagnoses/observations,"[5]; mouse, in vivo, iv",Myeloid hyperplasia bone marrow
same,sensitivity of HL-60-Dox cells with high expression of the MDR-1 gene,HL-60-Dox cells,sensitive to CDDO-Me-induced killing
same,protection by Bcl-2 overexpression (3-fold),[6],did not protect cells from CDDO-Me-killing
"CC1(C)CCC2(C(=O)O)CCC3(C)C(C(=O)C=C4C5(C)C=C(C#N)C(=O)C(C)(C)C5CCC43C)C2C1 (centres unmarked) [CDDO, 2-cyano-3,12-dioxoolen-1,9-dien-28-oic acid]",concentration needed to exert similar effect (CD11b+ as 0.1 μM CDDO-Me),HL-60 cells [1],1 µM
same,CD11b %,HL-60 cells [1]; 0.1 μM (DMSO control 24.9),45.0%
same,CD11b %,HL-60 cells [1]; 0.3 μM,75.9%
same,percentage of CD14 (+) live cells (FCM),HL-60 cells [1]; CDDO 0.5 μM,36.7%
same,percentage of CD14 (+) live cells (FCM),HL-60 cells [1]; CDDO 1 μM,80.4%
same,concentration at which monocytic differentiation was induced,HL-60 cells [1]; HL-60 cells,0.5 to 1.0 µM
same,formation of capillary-like structures by bone marrow endothelium,[2],potently inhibited the formation of capillary-like structures
same,Daudi cells alive,Daudi cells; 1 μM,73.6%
same,viability at 2 µM,"Daudi cells; Homo sapiens, Daudi, read-out: viable cells",25.3%
same,proliferation / structure formation of cytokine-stimulated vascular endothelial cells,[3],diminished the proliferation
same,IC50,"HL-60 cells [4]; Homo sapiens, 72 and 96 hours, read-out: concentration of CDDO that reduced cell numbers by 50%",1 nM
same,IC50,"HL-60 cells [4]; Homo sapiens, 48 hours, read-out: concentration of CDDO that reduced cell numbers by 50%",10 nM
same,AML samples with induced monocytic differentiation (CD14),primary AML cells,3/11
same,Diagnoses/observations,"[5]; mouse, in vivo, iv, 0.3 mg/kg",Myeloid hyperplasia bone marrow
same,Diagnoses/observations,"[5]; mouse, in vivo, iv, 3 mg/kg","Myeloid hyperplasia, bone marrow"
same,sensitivity of HL-60-Dox cells with high expression of the MDR-1 gene,HL-60-Dox cells,sensitive to CDDO-induced killing
same,protection by Bcl-2 overexpression (3-fold),[6],did not protect cells from CDDO-killing
